Test results from ChEMBL document CHEMBL1152045, “Synthesis of the pyrimidine analog of 4,5,6,7-tetrahydroimidazo[4,5,1-jk][1,4]benzodiazepin-2(1H)one (TIBO) potential for HIV-1 inhibition” (Bioorg Med Chem Lett, 1991).

Columns and labels:
MT4 [1] = test: Compound was tested for its anti HIV-1 activity in MT-4 cells up to 2 uM concentration; No activity against HIV-l virus replication.; format: functional, cell-based, Homo sapiens
MT4 [2] = test: Compound was tested for its anti HIV-1 activity in MT-4 cells.; format: functional, cell-based; details: Homo sapiens

In the case of CC(C)=CCN1Cc2ncnc3nc(O)n(c23)CC1C (configuration not stated), the IC50 (MT4 [1]) is reported as “Not Active”.

For CC(C)=CCN1Cc2cc(Cl)cc3[nH]c(=S)n(c23)C[C@@H]1C, the IC50 (MT4 [2]) was 42 nM.
